The source of these data is patent publication US20110251220A1, “Pharmaceutical compositions comprising gamma secretase modulators” (priority 2008, published 2011).

In experiment [1] the test system is LP-1 cells. Put plainly: Proliferation assay (CellTiter-Glo), LP-1. The format is cell-based, human. The note with it: LP-1, 48 h treatment. The method, then: Human MM cell lines used were as follows: NCI-H929, OPM-2, LP-1, RPMI-8226, U266 (DSMZ, Braunschweig, Germany). Cell lines were cultured in RPMI 1640 medium (Biochrom, Berlin, Germany) supplemented with 10% heat-inactivated fetal calf serum (FCS, Gibco, Karlsruhe, Germany), 1 mM sodium pyruvate and 100 units/ml penicillin and 100 μg/ml streptomycin (Gibco). Human osteoclasts were obtained as described in the reference of Zavrski I, Krebbel H, Wildemann B, et al. Proteasome inhibitors abrogate osteoclast differentiation and osteoclast function. Biochem Biophys Res Commun. 2005; 333:200-205. Briefly, peripheral blood mononuclear cells (PBMC) were isolated from whole blood of healthy volunteers, using a Ficoll-Hypaque density gradient. The adherent fraction of the isolated mononuclear cells was cultured for 21 days in MEM medium (Sigma-Aldrich Chemie, Taufkirchen, Germany) supplemented with 10% FCS, 100 U/ml penicillin, 100 μg/ml streptomycin, 50 ng/ml M-CSF, and 25 ng/ml RANKL (osteoclastogenic medium), before coculture experiments and treatment with the inventive compounds started. […]
For assaying proliferation/viability of cells CellTiter-Glo Luminescent Cell Viability Assay (Promega, Mannheim, Germany) was used. In this assay the number of viable cells at a given time point is determined by quantification of ATP present, which serves as a measure of metabolically active cells. […]
On the technique in general: ATP-based viability assays read luminescence as a measure of living cells.

In experiment [2] the test system is OPM-2 cells. Put plainly: Cell cycle analysis (propidium iodide), sub-G1 fraction, OPM-2. In kind it is cell-based, human. The note with it: OPM-2, after 72 h. The procedure: The compound according to example 1, hereinafter referred to as GSI15, (compound RH02015SC, Maybridge, Acros Organics, Geel, Belgium) was freshly dissolved as 26 mM stock solution in Dimethylsulfoxide (DMSO). Multiple myeloma therapeutics used were melphalan (marketed as Alkeran®, GlaxoSmithKline, Munich, Germany) and bortezomib (marketed as Velcade®, Janssen-Cilag, Neuss, Germany). Melphalan was freshly dissolved at 10 mg/ml in 0.9% NaCl-solution. Bortezomib was freshly dissolved at 100 ng/ml in 0.9% NaCl solution. Gamma Secretase Inhibitor (GSI) treatment for apoptosis assessment by AnnexinV/PI staining, cell cycle analysis and coculture experiments was performed in 6-well plates. GSI15 stock solution was added directly to the cell suspension. GSI treatment for assaying proliferation was performed in 96-well plates. […]
For cell cycle analysis 2×10^5 cells were spun down, medium was aspirated and cells washed with PBS. […] After 10 minutes incubation in the dark at room temperature, cells were analyzed by flow cytometry. The amount of apoptotic cells was determined by AnnexinV/propidium iodide staining using Human AnnexinV-FITC Kit (Bender Medsystems, Vienna, Austria), according to manufacturer's protocol. […] Cells were then spun down again, resuspended in binding buffer containing PI and analyzed by flow cytometry.

The test system of experiment [3] is OPM-2 cells. Kind of experiment: Apoptosis by AnnexinV-FITC/PI staining, OPM-2. In kind it is cell-based, human. The method, then: The compound according to example 1, hereinafter referred to as GSI15, (compound RH02015SC, Maybridge, Acros Organics, Geel, Belgium) was freshly dissolved as 26 mM stock solution in Dimethylsulfoxide (DMSO). Multiple myeloma therapeutics used were melphalan (marketed as Alkeran®, GlaxoSmithKline, Munich, Germany) and bortezomib (marketed as Velcade®, Janssen-Cilag, Neuss, Germany). Melphalan was freshly dissolved at 10 mg/ml in 0.9% NaCl-solution. Bortezomib was freshly dissolved at 100 ng/ml in 0.9% NaCl solution. Gamma Secretase Inhibitor (GSI) treatment for apoptosis assessment by AnnexinV/PI staining, cell cycle analysis and coculture experiments was performed in 6-well plates. GSI15 stock solution was added directly to the cell suspension. GSI treatment for assaying proliferation was performed in 96-well plates. 10,000 cells per well were seeded in 50 μl medium per well before 50 μl of a 2× solution of GSI15 prediluted in medium were added per well. Melphalan and bortezomib treatment as well as their combination with GSI15 for assaying apoptosis by AnnexinV/PI staining was done in 6-well plates. All inhibitors were added directly to the cells in 6-well plates.
For cell cycle analysis 2×10^5 cells were spun down, medium was aspirated and cells washed with PBS. Cells were then resuspended in 250 μl PBS. 1 ml ice-cold 70% ethanol was added, followed by overnight incubation at −20° C. Cells were spun down, the pellet washed with PBS and then resuspended in 200 μl PBS containing 0.15 mg/ml RNaseA and 30 μg/ml propidium iodide (PI). After 10 minutes incubation in the dark at room temperature, cells were analyzed by flow cytometry. The amount of apoptotic cells was determined by AnnexinV/propidium iodide staining using Human AnnexinV-FITC Kit (Bender Medsystems, Vienna, Austria), according to manufacturer's protocol. Briefly, 2×10^5 cells were spun down and washed with PBS, followed by 10 minutes incubation in binding buffer containing AnnexinV-FITC conjugate. Cells were then spun down again, resuspended in binding buffer containing PI and analyzed by flow cytometry.

The test system of experiment [4] is male Sprague-Dawley rats. Put plainly: PAN-model of albuminuric glomerular disease. The format is in vivo, rat. The following applies: day 7, 500 μg/100 g rat i.p. once per day, compared to PAN alone. The method, then: For the in vivo studies male Sprague-Dawley rats were purchased from Charles River and treated with puromycin aminoglycoside (PAN) to induce albuminuric glomerular disease as described previously (Niranjan et al., “The Notch pathway in podocytes plays a role in the development of glomerular disease.” Nat. Med. 14: 290-298, 2008). Rats were injected PAN (150 mg/kg) once. The test compounds were administered intraperitoneally (500 μg/100 g rat) once per day (n=4 animals per group). Injection of test compounds were started one day after PAN injection. All studies were performed in accordance with the European Union normative. As a positive control one group of rats received gamma secretase inhibitor DAPT.
Urinary albumine was measured at the indicated days as described previously (Sanchez-Nino et al., “The MIF receptor CD74 in diabetic podocyte injury”. J. Am. Soc. Nephrol. 20: 353-362, 2009). For total protein measurement urine samples were centrifuged and pellets were diluted in distilled water. Exton reagent (230 mM sulfosalic acid, 1.4 M sodium sulfate) was added and after 10 minutes absorbance was measured at 620 nm.

Structures are written as SMILES.

For the molecule `CC(C)c1ccc(S(=O)(=O)Nc2cccnc2Oc2ccc(Cl)cc2)cc1` [Example 1, N-(2-(4-chlorophenoxy)pyridin-3-yl)-4-isopropylbenzenesulfonamide], in experiment [1], the “concentration of maximum effect on proliferation” value was 60 µM and the proliferation entry is “dose-dependent reduction of proliferation”. Further, the sub-G1 fraction result in experiment [2] is given as “increase in the sub-G1 fraction”. For the same molecule, the apoptosis induction result in experiment [3] (OPM-2, 40 μM GSI15 alone, 24 h) is recorded as “did not induce apoptosis”. Further, the AnnexinV-FITC/PI staining entry in experiment [3] (OPM-2, 48 h of treatment) is “decrease of OPM-2 cells negative for both Annexin V-FITC- and PI-staining”. In experiment [3] (OPM-2 alone, 60 μM GSI15, 48 h), the “overall amount of apoptotic cells” value came to 29%. For the same molecule, in experiment [4], the inhibition of albuminuria was determined as 56% and the inhibition of proteinuria was found to be 50%.
